{"source": "patent US7524669B2", "about": "(priority 2002, dated 2009)", "key": {"AQP9 [1]": {"target": "T1, AQP9 (Rattus norvegicus, UniProt P56627)", "T1 sequence (P56627 whole entry)": "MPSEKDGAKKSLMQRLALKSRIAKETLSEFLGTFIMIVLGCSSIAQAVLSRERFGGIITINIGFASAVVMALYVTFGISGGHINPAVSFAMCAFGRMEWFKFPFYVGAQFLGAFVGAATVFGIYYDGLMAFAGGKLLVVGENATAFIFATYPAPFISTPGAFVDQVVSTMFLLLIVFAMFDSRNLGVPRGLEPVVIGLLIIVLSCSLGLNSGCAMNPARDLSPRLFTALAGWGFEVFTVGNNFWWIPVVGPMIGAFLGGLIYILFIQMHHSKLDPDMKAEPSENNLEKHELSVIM", "assay_type": "cell-based, Saccharomyces cerevisiae"}, "AQP9 [2]": {"target": "T1, AQP9", "details": "for effect of AQP9 expression on resistance/sensitivity of strain HD9: HD9 pAQP9, galactose induced, FIG. 3"}, "[3]": {"tested_on": "S. cerevisiae strains W303, W303 pYCF1, MG100, MG100 pYCF1", "test": "Arsenite transport (accumulation) assay in intact cells, Example 1", "assay_type": "cell-based, Saccharomyces cerevisiae", "details": "FIG. 2"}, "[4]": {"tested_on": "S. cerevisiae HD9 (fps1Δ acr3Δ ycf1Δ)", "details": "HD9 vs MG102 (acr3Δ ycf1Δ), FIG. 3"}, "[5]": {"tested_on": "S. cerevisiae strains W303, W303 pYCF1, MG100, MG100 pYCF1", "test": "Metal ion resistance assay (growth in liquid SD medium), Example 1"}, "[6]": {"tested_on": "S. cerevisiae HD9 (fps1Δ acr3Δ ycf1Δ)", "assay_type": "cell-based, Saccharomyces cerevisiae", "details": "strain HD9 (FPS1 deleted), 5 μM metalloid, FIG. 4"}, "AQP7": {"tested_on": "AQP7", "details": "HD9 pAQP7"}}, "note": "Where two headings read alike, the source gives them in different places.", "data": [{"molecule": "OCC(O)CO", "note": "[glycerol]", "values": [{"measurement": "inhibition of 73As(OH)3 uptake by glycerol", "setting": "AQP9 [1]", "result": "reduced the uptake"}, {"measurement": "effect of glycerol on AQP9-related arsenite sensitivity in growth assays", "setting": "AQP9 [2]", "result": "small reversal of the AQP9-related arsenite sensitivity"}]}, {"molecule": "O=[As]O", "note": "[arsenite, sodium arsenite]", "values": [{"measurement": "accumulation of 73As(OH)3 in intact cells", "setting": "[3]; strain MG100, 1.0 μM arsenite", "result": "accumulates more ^73As(III) than the wild type"}, {"measurement": "accumulation of 73As(OH)3 in intact cells", "setting": "[3]; strain MG100 pYCF1, 1.0 μM arsenite", "result": "accumulate much higher amounts of arsenite"}, {"measurement": "accumulation of 73As(OH)3 in intact cells", "setting": "[3]; strain W303, 1.0 μM arsenite", "result": "accumulate the least arsenic"}, {"measurement": "accumulation of 73As(OH)3 in intact cells", "setting": "[3]; strain W303 pYCF1, 1.0 μM arsenite", "result": "increases the amount of radioactive arsenite accumulated"}, {"measurement": "resistance of strain HD9 compared to strain MG102 (growth)", "setting": "[4]", "result": "resistant"}, {"measurement": "transport of radioactive metalloid into cells", "setting": "AQP9 [1]; HD9 expressing AQP9, 5 μM metalloid, FIG. 4", "result": "accumulated more ^73As(OH)3 than the parental strain MG102"}, {"measurement": "effect of AQP9 expression on resistance/sensitivity of strain HD9", "setting": "AQP9 [2]", "result": "reversed"}, {"measurement": "arsenite sensitivity (growth)", "setting": "[5]; strain MG100 (ACR3Δ), FIG. 1", "result": "extremely arsenic sensitive"}, {"measurement": "arsenite resistance (growth)", "setting": "[5]; strain MG100 pYCF1, FIG. 1", "result": "restores arsenite resistance"}, {"measurement": "arsenite resistance (growth)", "setting": "[5]; strain W303 (wild type ACR3), FIG. 1", "result": "resistant to higher concentrations"}, {"measurement": "arsenite resistance (growth)", "setting": "[5]; strain W303 pYCF1, Ycf1p expressed on a plasmid, FIG. 1", "result": "no effect on resistance"}, {"measurement": "transport of radioactive metalloid into cells", "setting": "[6]", "result": "reduced"}, {"measurement": "effect of AQP7 on a plasmid on resistance of strain HD9", "setting": "AQP7", "result": "no effect on resistance"}]}, {"molecule": "[Cl][Cd][Cl]", "note": "[cadmium, cadmium chloride]", "values": [{"measurement": "effect of AQP9 expression on resistance/sensitivity of strain HD9", "setting": "AQP9 [2]", "result": "no effect on sensitivity"}]}, {"molecule": "sodium arsenate", "values": [{"measurement": "effect of AQP9 expression on resistance/sensitivity of strain HD9", "setting": "AQP9 [2]", "result": "no effect on sensitivity"}]}, {"molecule": "O.O.O.O=C([O-])[C@H]([O-])[C@@H]([O-])C(=O)[O-].O=C([O-])[C@H]([O-])[C@@H]([O-])C(=O)[O-].[K+].[K+].[Sb+3].[Sb+3]", "note": "[antimonite, potassium antimonyl tartrate]", "values": [{"measurement": "resistance of strain HD9 compared to strain MG102 (growth)", "setting": "[4]", "result": "relatively resistant"}, {"measurement": "transport of radioactive metalloid into cells", "setting": "AQP9 [1]", "result": "facilitates transport"}, {"measurement": "effect of AQP9 expression on resistance/sensitivity of strain HD9", "setting": "AQP9 [2]", "result": "reversed"}, {"measurement": "transport of radioactive metalloid into cells", "setting": "[6]", "result": "low rates of transport"}, {"measurement": "effect of AQP7 on a plasmid on resistance of strain HD9", "setting": "AQP7", "result": "no effect on resistance"}]}]}
